Columns and labels:
[1] = Chemical stability (chemical hydrolysis) at different pH and temperature, HPLC of residual RSVTR; format: physicochemical; conditions: dark
Protocol: The chemical hydrolysis of RSVTR was studied at pH 2.0 (0.2 N HCI), 6.8 and 7.2 (phosphate buffer solutions). All solutions containing the same amount of RSVTR (1.18 µM) were kept in the dark at a constant temperature of 37 °C, 22 °C, and 5 °C. At appropriate time intervals, chosen to obtain enough data to pinpoint the stability profile (0, 2, 4, 8, 24, 48, 72, 96, 168, 696 h at pH 7.2; 0, 2, 4, 8, 24, 48, 72, 96, 192, 528, 768 h at pH 6.8; 0, 2, 4, 8, 24, 48, 72, 96, 528 h at pH 2.0), samples were withdrawn and analyzed immediately by HPLC for the residual RSVTR.
Pseudo-first-order rate constants were determined from the slope of the linear portion of the graph obtained, plotting the logarithm of the residual amount of RSVTR against time. RSVTR half-life (t1/2) was calculated according to Equation (1): t1/2 = […] (1) where k is the pseudo-first-order rate constant.
RSVTR was analyzed using an isocratic binary mobile phase consisting of 5% of acetonitrile and 95% of triethylamine 0.3% (v/v) in water (pH adjusted to 3.0 with trifluoroacetic acid). The flow rate was set at 1.0 mL/min and the column was maintained at 24 °C throughout the analysis. Chromatograms were acquired at 290 nm after analyzing RSVTR UV spectra in the range 200–400 nm and the retention time of RSVTR was approximately 5.40 min. The analytical method was validated according to ICH guidelines.

[2] = Oxygen Radical Absorbance Capacity (ORAC) assay; format: biochemical; conditions: samples 100 μg/mL properly diluted, AAPH 100 mM, fluorescein 10 nM, 37 °C, pH 7.0; values only in Figure 7
Protocol: The ORAC assay determined the fluorescence decrease of fluorescein (10 nM) after its oxidation in the presence of AAPH and the investigated samples (100 μg/mL) properly diluted, as previously reported [46, 47]. The assays were carried out at 37 °C, pH 7.0 recording fluorescence through a Wallac Victor 1420 Multilabel Counters fluorimeter (PerkinElmer, Waltham, MA, USA) (excitation λ = 540 nm, emission λ = 570 nm). Trolox (12.5 μM) and phosphate buffer were used as control standard and blank, respectively. The area under the quenching curve of fluorescein was used to calculate ORAC value of the investigated compounds using Origin®7 (OriginLab Corporation, Northampton, USA). ORAC Units, expressed as trolox micromole per microgram of sample (μmol/μg), were obtained according to Equation (2): ORAC value (μmol/μg) = K(S sample − S blank)/(S Trolox − S blank) (2) where K is the sample dilution factor, S the area under the fluorescence decay curve of sample, trolox or blank. Each experiment was performed in triplicate and data were expressed as mean ± SD

[3] = target: T1, bovine serum albumin (BSA) (Bos taurus, UniProt P02769); assay: Anti-glycation activity, AGEs formation through Maillard reaction (BSA + D-fructose); format: biochemical; conditions: samples 400 μg/mL, BSA 10 mg/mL + D-fructose 0.5 M, pH 7.4, 37 °C, 7 days; values only in Figure 8
T1 construct: purchased Sigma-Aldrich S.r.l; (Milan, Italy)
Protocol: Protein model bovine serum albumin (BSA) (10 mg/mL) incubated with D-fructose (0.5 M) in phosphate buffer 50 mM, pH 7.4 and NaN3 0.02% was used as positive control. BSA alone was the negative control while aminoguanidine (AMG) (400 μg/mL) was used as a reference. Final glycated BSA solutions (300 μL), alone and with samples (400 μg/mL), were incubated at 37 °C in 96-well microtiter closed with their silicon lids for 7 days. The inhibition of fluorescence was determined using a Wallac Victor 1420 Multilabel Counters fluorimeter (PerkinElmer, Waltham, MA, USA) (λexc 370 nm; λem 440 nm). Relative fluorescence units (RFU) were recorded and the percentage of AGEs formation inhibition was calculated as follows (Equation (3)): % of inhibition = {1 − (RFU sample/RFU Positive control)} × 100 (3)
Each experiment was performed in triplicate and data were expressed as mean ± SD Statistical analysis of the results was performed using Student’s t-test (p < 0.05).

T1 sequence (P02769 25-607): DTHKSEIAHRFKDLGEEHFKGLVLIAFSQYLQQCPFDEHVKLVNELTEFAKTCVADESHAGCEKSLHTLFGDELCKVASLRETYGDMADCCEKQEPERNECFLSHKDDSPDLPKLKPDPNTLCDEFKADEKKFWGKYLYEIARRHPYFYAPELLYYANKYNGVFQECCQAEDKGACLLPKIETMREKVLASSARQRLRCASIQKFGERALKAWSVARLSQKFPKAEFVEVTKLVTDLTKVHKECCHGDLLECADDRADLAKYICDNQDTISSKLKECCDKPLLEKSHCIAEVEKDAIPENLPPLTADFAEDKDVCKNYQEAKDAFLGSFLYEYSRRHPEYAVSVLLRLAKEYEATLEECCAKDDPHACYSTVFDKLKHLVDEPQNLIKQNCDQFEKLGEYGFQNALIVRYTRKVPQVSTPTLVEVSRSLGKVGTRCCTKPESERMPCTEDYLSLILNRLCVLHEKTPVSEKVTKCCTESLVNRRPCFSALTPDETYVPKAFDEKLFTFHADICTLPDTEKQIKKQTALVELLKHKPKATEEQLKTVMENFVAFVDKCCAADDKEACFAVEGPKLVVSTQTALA

Compound: Cc1c(C)c2c(c(C)c1O)CCC(C)(C(=O)Oc1ccc(/C=C/c3cc(OC(=O)C4(C)CCc5c(C)c(O)c(C)c(C)c5O4)cc(OC(=O)C4(C)CCc5c(C)c(O)c(C)c(C)c5O4)c3)cc1)O2 (stereo not drawn) [RSVTR]
- half-life at 1.18 µM ([1]; 0.2 N HCl solution, pH 2, pH 2.0 (0.2 N HCl), 5 °C): 19.2 days
- half-life at 1.18 µM ([1]; 0.2 N HCl solution, pH 2, pH 2.0 (0.2 N HCl), 22 °C): 8.25 days
- half-life at 1.18 µM ([1]; 0.2 N HCl solution, pH 2, pH 2.0 (0.2 N HCl), 37 °C): 5.54 days
- half-life at 1.18 µM ([1]; phosphate buffer, pH 6.8, pH 6.8 phosphate buffer, 5 °C): 48.1 days
- half-life at 1.18 µM ([1]; phosphate buffer, pH 6.8, pH 6.8 phosphate buffer, 22 °C): 36.1 days
- half-life at 1.18 µM ([1]; phosphate buffer, pH 6.8, pH 6.8 phosphate buffer, 37 °C): 28.9 days
- half-life at 1.18 µM ([1]; phosphate buffer, pH 7.2, pH 7.2 phosphate buffer, 5 °C): 72.2 days
- half-life at 1.18 µM ([1]; phosphate buffer, pH 7.2, pH 7.2 phosphate buffer, 22 °C): 28.9 days
- half-life at 1.18 µM ([1]; phosphate buffer, pH 7.2, pH 7.2 phosphate buffer, 37 °C): 12.5 days
- Antioxidant activity (ORAC), result in words [2]: lower antioxidant capacity
- Anti-glycation activity (inhibition of AGEs formation), result in words [3]: better anti-glycation agent than RSV
- melting point: 113 to 116 °C
